Holding throughout (details): CHO cell membrane fraction; 2.5 nM 3H-PGE2; pH 6.0; room temperature, 1 hour; more polar stereoisomer
One test addresses T1, mouse EP3α (Mus musculus, UniProt P30557).
T1 construct: expressed in transfected cells; host or cells: CHO cells (membrane fraction)
T1 sequence (P30557 1-365): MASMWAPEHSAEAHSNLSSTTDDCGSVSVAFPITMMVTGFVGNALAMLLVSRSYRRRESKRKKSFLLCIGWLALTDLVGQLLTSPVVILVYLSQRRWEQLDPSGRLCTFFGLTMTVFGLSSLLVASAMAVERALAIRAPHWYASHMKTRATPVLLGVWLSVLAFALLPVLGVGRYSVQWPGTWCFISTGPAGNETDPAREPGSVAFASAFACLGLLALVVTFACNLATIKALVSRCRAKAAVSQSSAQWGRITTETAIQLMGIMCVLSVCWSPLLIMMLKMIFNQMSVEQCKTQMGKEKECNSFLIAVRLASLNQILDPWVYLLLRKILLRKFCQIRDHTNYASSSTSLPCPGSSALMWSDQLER
In words: Binding assay using expression cell of prostanoids receptor subtype (competition of specific 3H-PGE2 binding), EP3α. As to the method:
(§1) (i) Binding Assay Using Expression Cell of Prostanoids Receptor Subtype
(§2) The preparation of membrane fraction was carried out according to the method of Sugimoto et. al., [J. Biol. Chem., 267, 6463-6466 (1992)], using expression CHO cell of the prostanoids receptor subtype (mouse EP1, EP2, EP3α, EP4).
(§3) The standard assay mixture containing membrane fraction (0.5 mg/ml) and [^3 H]-PGE2 ([…]) in a final volume of 200 μl was incubated at room temperature for 1 hour. The reaction was terminated by addition of ice-cooled buffer (3 ml). The mixture was filtered through a GF/B glass filter under reduced pressure. The radioactivity associated with the filter was measured by liquid scintillation counter.
(§4) Kd and Bmax values were determined from Scatchard plots [Ann. N. Y. Acad. Sci., 51, 660 (1949)]. Non-specific binding was calculated as the binding in the presence of an excess (2.5 μM) of unlabeled PGE2. In the experiment for competition of specific ^3 H-PGE2 binding by the compounds of the present invention, 2.5 nM of ^3 H-PGE2 and various concentrations of compounds of the present invention were added. The following buffer was used in all reactions.
(§5) Buffer: 10 mM potassium phosphate (pH 6.0), 1 mM EDTA, 10 mM MgCl2, 0.1 M NaCl.
(§6) All the values shown are those obtained using the more polar stereoisomer of the exemplified compounds. The dissociation constant; i.e. Ki (μM) of each compound was calculated by the following equation.

The target of another test is T2, mouse EP4 (Mus musculus, UniProt P32240).
T2 construct: expressed in transfected cells; host or cells: CHO cells (membrane fraction)
In words: Binding assay using expression cell of prostanoids receptor subtype (competition of specific 3H-PGE2 binding), EP4. As to the method:
as §1, §2, §3, §4, §5, §6

In a further test the target is T3, mouse EP2 (Mus musculus, UniProt Q62053).
T3 construct: expressed in transfected cells; host or cells: CHO cells (membrane fraction)
In words: Binding assay using expression cell of prostanoids receptor subtype (competition of specific 3H-PGE2 binding), EP2. As to the method:
as §1, §2, §3, §4, §5, §6

The target in the next test is T4, mouse EP1 (Mus musculus, UniProt P35375).
T4 construct: expressed in transfected cells; host or cells: CHO cells (membrane fraction)
T4 sequence (P35375 1-405): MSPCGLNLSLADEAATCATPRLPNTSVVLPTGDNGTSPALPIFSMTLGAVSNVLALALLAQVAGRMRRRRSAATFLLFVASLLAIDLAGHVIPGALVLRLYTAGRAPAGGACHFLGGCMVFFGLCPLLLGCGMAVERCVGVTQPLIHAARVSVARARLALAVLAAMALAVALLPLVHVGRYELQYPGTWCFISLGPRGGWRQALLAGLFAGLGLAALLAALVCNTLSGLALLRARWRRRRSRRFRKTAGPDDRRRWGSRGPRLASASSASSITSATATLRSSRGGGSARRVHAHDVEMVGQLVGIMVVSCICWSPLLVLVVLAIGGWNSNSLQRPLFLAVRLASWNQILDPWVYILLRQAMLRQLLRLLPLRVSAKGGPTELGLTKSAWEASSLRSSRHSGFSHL
Briefly: Binding assay using expression cell of prostanoids receptor subtype (competition of specific 3H-PGE2 binding), EP1. As to the method:
as §1, §2, §3, §4, §5, §6

Experimental findings from US6262293A, “ω-Cycloalkly-prostaglandin e2 derivatives” (Ono Pharmaceutical Co., Ltd., priority 1997, dated 2001) are described below.

Molecules are shown by their SMILES.

T2 sequence (P32240 whole entry): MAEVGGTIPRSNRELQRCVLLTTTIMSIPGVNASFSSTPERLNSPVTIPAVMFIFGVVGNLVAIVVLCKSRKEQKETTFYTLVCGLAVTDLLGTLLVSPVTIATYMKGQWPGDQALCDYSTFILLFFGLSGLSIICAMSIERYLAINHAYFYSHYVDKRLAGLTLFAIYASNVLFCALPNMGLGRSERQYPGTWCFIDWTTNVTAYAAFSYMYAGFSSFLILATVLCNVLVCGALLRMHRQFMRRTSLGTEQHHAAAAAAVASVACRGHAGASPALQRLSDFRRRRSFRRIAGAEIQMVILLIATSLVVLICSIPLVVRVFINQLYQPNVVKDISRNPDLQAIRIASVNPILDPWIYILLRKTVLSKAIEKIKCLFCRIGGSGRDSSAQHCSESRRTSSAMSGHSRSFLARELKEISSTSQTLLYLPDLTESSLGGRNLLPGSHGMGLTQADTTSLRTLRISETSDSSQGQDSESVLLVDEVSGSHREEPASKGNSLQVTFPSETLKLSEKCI
T3 sequence (Q62053 whole entry): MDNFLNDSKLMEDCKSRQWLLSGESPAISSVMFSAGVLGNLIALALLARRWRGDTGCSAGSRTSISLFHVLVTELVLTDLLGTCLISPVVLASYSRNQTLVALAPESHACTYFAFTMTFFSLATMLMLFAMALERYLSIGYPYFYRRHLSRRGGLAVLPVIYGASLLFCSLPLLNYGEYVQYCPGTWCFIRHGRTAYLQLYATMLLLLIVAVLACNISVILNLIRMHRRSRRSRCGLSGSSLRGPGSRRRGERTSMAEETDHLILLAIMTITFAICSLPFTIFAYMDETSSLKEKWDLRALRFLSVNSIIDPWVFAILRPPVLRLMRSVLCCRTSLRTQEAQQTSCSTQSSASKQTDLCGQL

As usually defined, the Ki is the dissociation constant of the complex between target and ligand, obtained from inhibition or displacement. A lower Ki goes with tighter binding. `C=CCC1(C(O)C/C=C/[C@H]2[C@H](O)CC(=O)[C@@H]2CCc2ccc(C(=O)O)cc2)CCC1` (single isomer, unassigned) [Example 2(a), (11α,13E)-9-Oxo-11,16-dihydroxy-17,17-propano-1,6-(p-phenylene)-2,3,4,5-tetranorprost-13,19-dienoic Acid]: the Ki on mouse EP3α is above 10000 nM; at mouse EP4, above 10000 nM; at mouse EP2 it was 9.7 nM; on mouse EP1 it was above 10000 nM.
On to `O=C(O)c1ccc(CC[C@H]2C(=O)C[C@@H](O)[C@@H]2/C=C/CC(O)C2(CC3CC3)CCC2)cc1` (single isomer, unassigned) [Example 2(b), (11α,13E)-9-Oxo-11,16-dihydroxy-17,17-propano-19,20-methano-1,6-(p-phenylene)-2,3,4,5-tetranorprost-13-enoic Acid], for which the Ki on mouse EP3α was above 10000 nM; at mouse EP4, above 10000 nM; on mouse EP2, 6.1 nM; on mouse EP1 it was above 10000 nM.
Consider `C=CCC1(C(O)C/C=C/[C@@H]2[C@@H](CCc3ccc(C(=O)O)cc3)[C@H](Cl)C[C@H]2O)CCC1` (stereo partly drawn) [9(c), (9β,11α,13E) -9-Chloro-11,16-dihydroxy-17,17-propano-1,6-(p-phenylene)-2,3,4,5-tetranorprost-13,19-dienoic acid], for which the Ki was above 10000 nM at mouse EP3α, above 10000 nM at mouse EP4, 5.1 nM at mouse EP2 and above 10000 nM at mouse EP1.
`C=CCC1(C(O)C/C=C/[C@@H]2C(SCc3ccc(C(=O)O)cc3)C(=O)C[C@H]2O)CCC1` (stereo partly drawn) [Example 5(b), (11α,13E)-9-Oxo-11,16-dihydroxy-17,17-propano-7-thia-1,6-(p-phenylene)-2,3,4,5-tetranorprost-13,19-dienoic Acid]: the Ki at mouse EP3α is above 10000 nM; at mouse EP4 it was 1500 nM; at mouse EP2, 19 nM; at mouse EP1, above 10000 nM.
On to `O=C(O)c1ccc(CSC2C(=O)C[C@@H](O)[C@@H]2/C=C/CC(O)C2(CC3CC3)CCC2)cc1` (stereo partly drawn) [Example 5(d), (11α,13E) -9-Oxo-11,16-dihydroxy-17,17-propano-19,20-methano-7-thia-1,6-(p-phenylene)-2,3,4,5-tetranorprost-13-enoic Acid], for which the Ki at mouse EP3α is above 10000 nM; at mouse EP4 it was 310 nM; at mouse EP2, 2 nM; at mouse EP1, above 10000 nM.
